The target in test [1] is T1, Human PDGFRα, cytoplasmic domain (GST-PDGFRα) (Homo sapiens, UniProt P16234).
T1 construct: made in house
Briefly: Human PDGFRα biochemical inhibition assay (off-chip Mobility Shift Assay).

Test [2] addresses T2, Human PDGFRβ, cytoplasmic domain (GST-PDGFRβ) (Homo sapiens, UniProt P09619).
T2 construct: made in house
In words: Human PDGFRβ biochemical inhibition assay (off-chip Mobility Shift Assay). In outline: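 GST-tagged cytoplasmic domain (aa 557-1106) from baculovirus was incubated 1 h at room temperature with compound, CSKtide, ATP at Km and Mg²⁺ in HEPES buffer, pH 7.5. Phosphorylated and unphosphorylated peptide were separated by off-chip mobility shift, and the product ratio P/(P+S) gave percent inhibition.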

Structures are written as SMILES.

T2 sequence (P09619 with tags, fused parts or gaps): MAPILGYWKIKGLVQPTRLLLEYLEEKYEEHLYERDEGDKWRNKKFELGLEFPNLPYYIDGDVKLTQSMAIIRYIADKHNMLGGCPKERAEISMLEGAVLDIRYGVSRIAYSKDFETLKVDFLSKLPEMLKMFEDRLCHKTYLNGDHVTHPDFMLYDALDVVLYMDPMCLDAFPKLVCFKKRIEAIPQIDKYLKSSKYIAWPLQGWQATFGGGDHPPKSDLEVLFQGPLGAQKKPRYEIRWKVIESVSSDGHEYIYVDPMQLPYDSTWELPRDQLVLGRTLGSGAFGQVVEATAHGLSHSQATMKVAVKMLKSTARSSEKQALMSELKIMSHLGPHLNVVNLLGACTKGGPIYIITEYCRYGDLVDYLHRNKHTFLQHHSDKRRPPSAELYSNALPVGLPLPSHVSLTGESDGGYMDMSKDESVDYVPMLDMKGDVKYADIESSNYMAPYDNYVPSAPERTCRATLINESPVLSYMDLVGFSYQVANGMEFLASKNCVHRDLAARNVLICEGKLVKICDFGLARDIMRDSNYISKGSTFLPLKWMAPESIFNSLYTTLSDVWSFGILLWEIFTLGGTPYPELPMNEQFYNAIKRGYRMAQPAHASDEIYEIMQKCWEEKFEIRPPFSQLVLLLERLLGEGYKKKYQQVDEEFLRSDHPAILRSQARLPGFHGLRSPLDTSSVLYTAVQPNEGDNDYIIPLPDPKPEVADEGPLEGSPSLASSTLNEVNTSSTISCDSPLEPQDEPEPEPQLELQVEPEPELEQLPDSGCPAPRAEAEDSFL
T1 sequence (P16234 550-1089 T674I): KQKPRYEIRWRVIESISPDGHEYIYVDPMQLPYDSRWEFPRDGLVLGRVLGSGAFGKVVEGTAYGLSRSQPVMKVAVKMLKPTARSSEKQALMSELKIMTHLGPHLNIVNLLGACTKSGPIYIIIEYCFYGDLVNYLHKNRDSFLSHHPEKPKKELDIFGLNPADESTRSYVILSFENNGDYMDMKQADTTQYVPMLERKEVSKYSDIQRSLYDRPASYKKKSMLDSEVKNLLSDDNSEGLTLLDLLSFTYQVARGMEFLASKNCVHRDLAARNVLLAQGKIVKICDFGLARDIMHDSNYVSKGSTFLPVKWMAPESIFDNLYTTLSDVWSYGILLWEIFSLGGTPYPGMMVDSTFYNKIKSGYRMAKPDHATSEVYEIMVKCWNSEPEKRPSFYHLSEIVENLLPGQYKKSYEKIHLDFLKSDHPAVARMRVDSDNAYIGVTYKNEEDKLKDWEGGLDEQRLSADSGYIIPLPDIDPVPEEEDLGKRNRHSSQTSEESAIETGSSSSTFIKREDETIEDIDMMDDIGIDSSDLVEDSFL

With `Cc1cncc(C(=O)Nc2cccc([C@H](C)Nc3cncc4c3cnn4C)c2)c1` [Compound 750, (S)-5-methyl-N-(3-(1-((1-methyl-1H-pyrazolo[3,4-c]pyridin-4-yl)amino)ethyl)phenyl)nicotinamide], the IC50 in test [1] and in test [2] was not below 1000 nM each time.

Turning to `CCn1cc2ncc(N[C@@H](C)c3cc(NC(=O)Cc4ccc5c(n4)CCCC5)ccc3C)nc2n1` [Compound 728, (S)-N-(3-(1-((2-ethyl-2H-pyrazolo[3,4-b]pyrazin-6-yl)amino)ethyl)-4-methylphenyl)-2-(5,6,7,8-tetrahydroquinolin-2-yl)acetamide], the IC50 in test [1] and in test [2] was not below 1000 nM throughout.

In the case of `Cc1cncc(C(=O)Nc2cccc([C@H](C)Nc3cnn4ccccc34)c2)c1` [Compound 20, (S)-5-methyl-N-(3-(1-(pyrazolo[1,5-a]pyridin-3-ylamino)ethyl)phenyl)nicotinamide], the IC50 in test [1] and in test [2] was not below 1000 nM each time.

Consider `COc1ccc(C(=O)Nc2cccc([C@H](C)Nc3cnc4cnn(C)c4n3)c2)cn1` [Compound 122, (S)-6-methoxy-N-(3-(1-((1-methyl-1H-pyrazolo[3,4-b]pyrazin-6-yl)amino)ethyl)phenyl)nicotinamide], for which the 50% inhibitory concentration (IC50) (commonly the concentration that gives 50% inhibition) in test [1] was less than 300 nM; in test [2] it was 300 to 1000 nM.

Consider `CCn1cc2ncc(N[C@@H](C)c3cc(NC(=O)c4ccc(NC)nc4)ccc3F)nc2n1` [Compound 337, (S)-N-(3-(1-((2-ethyl-2H-pyrazolo[3,4-b]pyrazin-6-yl)amino)ethyl)-4-fluorophenyl)-6-(methylamino)nicotinamide], for which the IC50 in test [1] and in test [2] was less than 300 nM in each case.

Regarding `Cc1n[nH]c2ncc(N[C@@H](C)c3cccc(NC(=O)c4ccc(OC(F)(F)F)nc4)c3)nc12` [Compound 536, (S)-N-(3-(1-((3-methyl-1H-pyrazolo[3,4-b]pyrazin-5-yl)amino)ethyl)phenyl)-6-(trifluoromethoxy)nicotinamide], the IC50 in test [1] and in test [2] was less than 300 nM throughout.

As for `COCc1cncc(C(=O)Nc2cccc([C@H](C)Nc3cnc4cnn(C)c4n3)c2)c1` [Compound 112, (S)-5-(methoxymethyl)-N-(3-(1-((1-methyl-1H-pyrazolo[3,4-b]pyrazin-6-yl)amino)ethyl)phenyl)nicotinamide], the IC50 in test [1] and in test [2] was less than 300 nM throughout.

With `CCn1cc2ncc(N[C@@H](C)c3cccc(NC(=O)c4cncc(C)c4)c3)cc2n1` [Compound 11, (S)—N-(3-(1-((2-ethyl-2H-pyrazolo[4,3-b]pyridin-6-yl)amino)ethyl)phenyl)-5-methylnicotinamide], the IC50 in test [1] and in test [2] was less than 300 nM throughout.

As to `Cc1ccc(C(=O)Nc2cccc([C@H](C)Nc3cnc4cnn(C)c4n3)c2)cc1F` [Compound 188, (S)-3-fluoro-4-methyl-N-(3-(1-((1-methyl-1H-pyrazolo[3,4-b]pyrazin-6-yl)amino)ethyl)phenyl)benzamide], the IC50 in test [1] and in test [2] was less than 300 nM throughout.

For `COc1ccc(-n2ncc3ncc(N[C@@H](C)c4cccc(NC(=O)c5cncc(C)c5)c4)nc32)cc1OC` [Compound 185, (S)-N-(3-(1-((1-(3,4-dimethoxyphenyl)-1H-pyrazolo[3,4-b]pyrazin-6-yl)amino)ethyl)phenyl)-5-methylnicotinamide], the IC50 in test [1] and in test [2] was less than 300 nM in each case.

As to `Cc1cncc(C(=O)Nc2cccc([C@H](C)Nc3cnc4cc(C(F)(F)F)ccc4n3)c2)c1` [Compound 35, (S)-5-methyl-N-(3-(1-((6-(trifluoromethyl)quinoxalin-2-yl)amino)ethyl)phenyl) nicotinamide], the IC50 in test [1] and in test [2] was less than 300 nM each time.

As to `CCn1cc2ncc(N[C@@H](C)c3cccc(NC(=O)c4ccc(C)c(Cl)c4)c3)nc2n1` [Compound 332, (S)-3-chloro-N-(3-(1-((2-ethyl-2H-pyrazolo[3,4-b]pyrazin-6-yl)amino)ethyl)phenyl)-4-methylbenzamide], the IC50 in test [1] and in test [2] was less than 300 nM in each case.

Consider `Cc1cncc(C(=O)Nc2ccc(F)c([C@H](C)Nc3cnc4cn(CC5CNCCO5)nc4n3)c2)c1` (stereo partly drawn) [Compound 411, N-(4-fluoro-3-((1S)-1-((2-(morpholin-2-ylmethyl)-2H-pyrazolo[3,4-b]pyrazin-6-yl)amino)ethyl)phenyl)-5-methylnicotinamide], for which the IC50 in test [1] and in test [2] was less than 300 nM in each case.

Consider `Cc1cc(C(=O)Nc2cccc([C@H](C)Nc3cnc4cnn(C)c4n3)c2)cnc1C(F)F` [Compound 190, (S)-6-(difluoromethyl)-5-methyl-N-(3-(1-((1-methyl-1H-pyrazolo[3,4-b]pyrazin-6-yl)amino)ethyl)phenyl) nicotinamide], for which the IC50 in test [1] and in test [2] was less than 300 nM in each case.

Consider `CCn1cc2ncc(N[C@@H](C)c3cc(NC(=O)Cc4ccc(F)c(C)n4)ccc3C)nc2n1` [Compound 675, (S)-N-(3-(1-((2-ethyl-2H-pyrazolo[3,4-b]pyrazin-6-yl)amino)ethyl)-4-methylphenyl)-2-(5-fluoro-6-methylpyridin-2-yl)acetamide], for which the IC50 in test [1] and in test [2] was less than 300 nM throughout.

For the compound `CCn1cc2ncc(N[C@@H](C)c3cccc(NC(=O)c4ccc(N5CCNCC5)nc4)c3)nc2n1` [Compound 397, (S)-N-(3-(1-((2-ethyl-2H-pyrazolo[3,4-b]pyrazin-6-yl)amino)ethyl)phenyl)-6-(piperazin-1-yl)nicotinamide], the IC50 in test [1] was 300 to 1000 nM; in test [2], not below 1000 nM.

With `CCn1cc2ncc(N[C@@H](C)c3cccc(NC(=O)c4ccc(Cn5ccnc5)c(C)c4)c3)nc2n1` [Compound 435, (S)-4-((1H-imidazol-1-yl)methyl)-N-(3-(1-((2-ethyl-2H-pyrazolo[3,4-b]pyrazin-6-yl)amino)ethyl)phenyl)-3-methylbenzamide], the IC50 in test [1] and in test [2] was less than 300 nM each time.

Consider `Cc1cc(C(=O)Nc2cccc([C@H](C)Nc3cnc4cnn(C)c4n3)c2)cnc1CN1CCN(C)CC1` [Compound 243, (S)-5-methyl-N-(3-(1-((1-methyl-1H-pyrazolo[3,4-b]pyrazin-6-yl)amino)ethyl)phenyl)-6-((4-methylpiperazin-1-yl)methyl)nicotinamide], for which the IC50 in test [1] and in test [2] was less than 300 nM in each case.

Turning to `CCn1cc2ncc(N[C@@H](C)c3cccc(NC(=O)Cc4ccc(C(C)C)cn4)c3)nc2n1` [Compound 709, (S)-N-(3-(1-((2-ethyl-2H-pyrazolo[3,4-b]pyrazin-6-yl)amino)ethyl)phenyl)-2-(5-isopropylpyridin-2-yl)acetamide], the half-inhibitory concentration (IC50) in test [1] is 300 to 1000 nM; in test [2], not below 1000 nM.

Consider `COc1cncc(C(=O)Nc2cccc([C@H](C)Nc3cnc4[nH]nc(C)c4n3)c2)c1` [Compound 531, (S)-5-methoxy-N-(3-(1-((3-methyl-1H-pyrazolo[3,4-b]pyrazin-5-yl)amino)ethyl)phenyl)nicotinamide], for which the IC50 in test [1] and in test [2] was less than 300 nM throughout.

With `CCn1cc2ncc(N[C@@H](C)c3cccc(NC(=O)c4ccc(OC(F)(F)F)c(C)c4)c3)nc2n1` [Compound 452, (S)-N-(3-(1-((2-ethyl-2H-pyrazolo[3,4-b]pyrazin-6-yl)amino)ethyl)phenyl)-3-methyl-4-(trifluoromethoxy)benzamide], the IC50 in test [1] and in test [2] was less than 300 nM throughout.

The values above are taken from patent US20230102554A1 (GB002, INC., priority 2019, published 2023).
